Assay results reported in patent US20030139438A1, “Diagnosis of the parkinsonian condition” (priority 2001, published 2003).

Assays:
[1] = system: actions of metenkephalin; assay: Naloxone challenge in reserpine-treated rat model of pre-symptomatic subjects; type: in vivo, rats
Method: (§1) Reserpine (3 mg/kg, s.c, in 3% glacial acetic acid) was administered to rats to deplete dopamine levels.
(§2) In this situation the animals represent a model of pre-symptomatic subjects, i.e. they have a dopamine depletion but no symptoms.
The parkinsonan symptoms were reversible and were not observed one hour after the naloxone injection where the animals returned to the presymptomatic state.

[2] = system: dopamine levels; assay: Reserpine-induced dopamine depletion in rats; type: in vivo; conditions: 3 mg/kg s.c., after 48 hours
Method: as §1, §2

[3] = system: opioid receptor; assay: Naltrexone challenge in reserpine-treated rats, locomotor activity (Benwick monitors); type: in vivo, Sprague-Dawley rats
Method: Reserpine was administered to rats to deplete dopamine levels. […] In this situation the animals represent a model of pre-symptomatic patients, i.e. they have a dopamine depletion but no overt symptoms.
Male Sprague-Dawley rats were split into two groups A and B. Rats in both groups received a subcutaneous administration of reserpine (3 mg/kg). The rats were allowed to recover for 48 hours post reserpine treatment at which point they are considered to represent a model of pre-symptomatic Parkinson's disease.
After the 48 hours Group A were treated with vehicle (water) and group B were treated with naltrexone (10 mg/kg) and placed in locomotor monitoring apparatus (see below).
The locomotion of the rats in Groups A and B following either vehicle or naltrexone treatment was measured over the 5 minute period immediately after drug administration using Benwick locomotor monitors. These locomotion monitors consist of a visually-shielded open-field arena, the perimeter of which is surrounded by a series of infra-red beams arranged at 5 cm intervals. PC-based software (Amlogger) assesses the number of beams broken. The number of beams broken as part of a locomotor movement (activity counts) was measured.

[4] = system: striatal DA content; assay: Neurochemical analysis of striatal DA by HPLC with electrochemical detection; type: in vivo, Macaca fascicularis
Method: (§3) Five monkeys were killed at the beginning of the study and were considered as day 0 (D0) controls. The remaining 20 were treated with daily (9:00 am) injections of MPTP hydrochloride (0.2 mg/kg, i.v.; Sigma, St Louis, Mo.) in saline according to a previously described protocol (Bezard et al., 1997 Neuroscience 81 p 399-404; Bezard et al., 1997 Brain Res. 766 p 107-112; and Bezard et al., 1999 Eur. J. Neurosci. 11 p 2167-2170). This protocol derives a reproducible MPTP cumulative dosing regime that leads to the first appearance of parkinsonian clinical signs after 15±1 injections (3.0±0.02 mg/kg). Five presymptomatic monkeys were killed on day 6 (i.e., after 6 injections; D6 Group), five presymptomatic monkeys at day 12 (i.e. after 12 injections; D12 group), five at day 15 after appearance of overt symptoms (i.e. after 15 injections; D15 group), and the remaining five fully parkinsonian monkeys at day 25 (i.e. after 15 injections; D25). All animals were killed by sodium pentobarbital overdose (150 mg/kg, i.v.) and the brains were removed quickly after death. Each brain was bisected along the midline and the two hemispheres were immediately frozen by immersion in isopentane (−45° C.) and then stored at −80° C. Tissue was sectioned at 20 μm in a cryostat at −17° C., thaw-mounted onto gelatin-subbed slides, dried on a slide warmer and stored at −80° C.
The extent of striatal DA denervation was assessed by measuring levels of DA, 3,4-dihydroxyphenylacetic acid (DOPAC) and homovanillic acid (HVA) in both the caudate nucleus and the putamen using high-pressure liquid chromatography with electrochemical detection as previously described (Bezard et al., 1997 Neuroscience 81 p399-404) with minor modifications. […] Pellets were retained for quantification of protein content by the Bradford assay (Bezard et al., 1997 Neuroscience 81 p 399-404). […] Concentrations of DA and metabolites were calculated using a computing integrator (Gold Nouveau V 1.6, Beckman). Mean and SEM values were calculated for both putamen and caudate nucleus for each group.

[5] = system: cynomolgus monkeys; assay: Parkinsonian monkey rating scale after chronic MPTP administration; type: in vivo, Macaca fascicularis; conditions: scale 0-25
Method: (§4) Experiments were conducted on twenty five female cynomolgus monkeys (Macaca fascicularis, Shared Animal Health, Beijing, PR of China; mean age=3.1. ±0.3 years; mean weight=2.8 ±0.2 kg). Animals were housed in individual primate cages under controlled conditions of humidity (50±5%0, temperature (24 ±1° C.), and light (12 h light/dark cycles), food and water were available ad libitum and their care supervised by veterinarians skilled in the healthcare and maintenance of nonhuman primates. Experiments were carried out in accordance with European Economic Community (86/6091/EEC) guidelines for care of laboratory animals. The effect of nontreatment on both motor behaviour and PPE-A expression had been previously compared with that of the administration of saline in order to rule out any possible interference. Accordingly MPTP-treated animals were compared with “nontreated” controls in this study. This procedure has been chosen to minimise the number of animals used. In addition, brain tissues acquired for the present experiments are being used for further experiments.
as §3, with “Tissue was sectioned at 20 μm in a cryostat at −17° C., thaw-mounted onto gelatin-subbed slides, dried on a slide warmer and stored at −80° C.” left out
(§5) Animal behavior was assessed daily (2 p.m) on a parkinsonian monkey rating scale (Bezard et al., 1997 Neuroscience 81 p399-404; and Bezard et al., 1997 Neuroreport 8 p435-438) using videotape recordings of monkeys in their cages in addition to clinical neurological evaluation. During each session two examiners evaluated the animals' levels of motor performance, coaxing them to perform various tasks by offering appetizing fruit. […]

[6] = system: cynomolgus monkeys; assay: Bradykinesia test (time to pick up three pieces of fruit) after chronic MPTP; type: in vivo, Macaca fascicularis; conditions: maximum 60 s
Method: as §4
as §3, with “Tissue was sectioned at 20 μm in a cryostat at −17° C., thaw-mounted onto gelatin-subbed slides, dried on a slide warmer and stored at −80° C.” left out
as §5

[7] = system: PPE-A mRNA; assay: Preproenkephalin-A in situ hybridization in striatum; type: in vivo, Macaca fascicularis
Method: as §3
In situ hybridization histochemistry was performed as previously described by Henry et al. (1999 Exp. Neurol. 155 p204-220) using a ^35S-radiolabeled oligonucleotide probe (Gibco BRL) corresponding to amino acids 130-145 of the human sequence of PPE-A. One microliter of the oligonucleotide was tailed by the isotope of 37° C. in a mixture containing 10 μl sterile water, 12.5 μl reaction buffer (sodium cocodylate 120 mM and dithiothreitol 100 mM), and 2 μl terminal deoxynucleotide transferase (all reagents DuPont/NEN) with 7 μl of [^35S] ATP (82.5 μCi, NEN). […] One microliter of this solution was counted by a liquid scintillation counter (Tricarb, 1500 Packard) to asses the efficiency of labeling. […]
Densitomeric analysis of autoradiographs was performed using an image analysis system (Image Pro Plus, v3.0.01, Media Cybernetics L.P., Atlanta, Ga.) as previously described (Henry et al., supra). The optical density of the autoradiogram was assessed for the striatum at three rostrocaudal levels in accordance with the functional organisation of the striatum: a rostral level, including the caudate, putamen, and nucleus accumbens; a midlevel, including the caudate, putamen, and GPe; and a caudal level including the body of the caudate, the putamen, and both the GPe and GPi. […] Four sections per animal, per striatal level were analyzed by an examiner blind with regard to experimental condition. […]

C=CCN1CC[C@]23c4c5ccc(O)c4O[C@H]2C(=O)CC[C@@]3(O)[C@H]1C5 [naloxone]
parkinsonian symptoms ([1]; 10 mg/kg i.p., rats 48 hours after reserpine 3 mg/kg s.c.): parkinsonian symptoms became manifest
parkinsonian symptoms one hour after the injection ([1]; 10 mg/kg i.p., reserpine-treated rats): not observed
parkinsonian symptoms in control animals not treated with reserpine ([1]; naloxone without reserpine): No parkinsonian symtoms were seen

COC(=O)[C@H]1[C@H]2C[C@@H]3c4[nH]c5cc(OC)ccc5c4CCN3C[C@H]2C[C@@H](OC(=O)c2cc(OC)c(OC)c(OC)c2)[C@@H]1OC [Reserpine]
dopamine level [2]: not less than 20 % of normal levels

O=C1CC[C@@]2(O)[C@H]3Cc4ccc(O)c5c4[C@@]2(CCN3CC2CC2)[C@H]1O5 [naltrexone]
parkinsonian symptoms ([3]; 10 mg/kg i.p., rats 48 hours after reserpine): parkinsonian symptoms appeared
activity counts versus vehicle treated group ([3]; 10 mg/kg, 5 minute period after administration, rats 48 hours after reserpine 3 mg/kg s.c., P<0.01): significantly less

CN1CC=C(c2ccccc2)CC1 [MPTP, 1-methyl-4-phenyl-1,2,3,6-tetrahydropyridine]
reduction of DA level in the putamen compared to D0 ([4]; D6 group): 42.7%
depletion of DA in the putamen compared to D0 ([4]; D12 group, asymptomatic): 56.3%
decrease of DA level in the putamen compared to D0 ([4]; D25 group): 97.9%
parkinsonian score ([5]; D6 group, 6 daily injections 0.2 mg/kg i.v.): 0
parkinsonian score ([5]; D12 group, 12 daily injections 0.2 mg/kg i.v.): 0
parkinsonian score, median (range) ([5]; D15 group, 15 injections 0.2 mg/kg i.v.): 11 (range 10-14)
parkinsonian score, median (range) ([5]; D25 group, killed at day 25 after 15 injections): 17 (range 15-19)
mean duration of the bradykinesia test ([6]; D6 group, D0 controls 3.0±0.4 s): 2.4 ± 0.3 s
mean duration of the bradykinesia test ([6]; D12 group, D0 controls 3.0±0.4 s): 2.6 ± 0.5 s
mean duration of the bradykinesia test ([6]; D15 group): 19.9 ± 9.1 s
mean duration of the bradykinesia test ([6]; D25 group, could not perform the test): 60 s
PPE-A mRNA levels in striatum compared to D0 ([7]; D6 group): no significant difference
PPE-A mRNA levels in striatum compared to D0 ([7]; D12 group, asymptomatic): sharp increase
PPE-A mRNA levels in striatum compared to D0 ([7]; D15 group, mild parkinsonian symptoms): same distribution of increased levels
PPE-A mRNA levels in striatum compared to D0 ([7]; D25 group, fully parkinsonian): pronounced increases
